From US9770025B2, “Fungicidal compositions” (Syngenta Participations AG, priority 2013, dated 2017)
Values joined by “and” are separate entries in the source; they are usually repeats but may differ in a detail not shown here. Equal entries are not always repeated. Where two headings read alike, the source gives them in different places.

Experiments:
Type in all cases: cell-based
Pythium ultimum = Pythium ultimum (seedling damping off) liquid culture growth inhibition; conditions: Globisporangium ultimum, read-out: Compound 1.001 inhibition (%), PDB
Experimental: (§1) Liquid Culture Tests in Well Plates
(§2) Mycelia fragments or conidia suspensions of a fungus, prepared either freshly from liquid cultures of the fungus or from cryogenic storage, were directly mixed into nutrient broth. DMSO solutions of the test compound (max. 10 mg/ml) was diluted with 0.025% Tween20 by factor 50 and 10 μl of this solution was pipetted into a microtiter plate (96-well format). The nutrient broth containing the fungal spores/mycelia fragments was then added to give an end concentration of the tested compound. The test plates were incubated in the dark at 24° C. and 96% rh. The inhibition of fungal growth was determined photometrically and visually after 2-4 days, depending on the pathosystem, and percent antifungal activity relative to the untreated check was calculated.
Pythium ultimum Seedling Damping Off)/Liquid Culture:
Mycelia fragments and oospores of a newly grown liquid culture of the fungus were directly mixed into nutrient broth (PDB potato dextrose broth). After placing a (DMSO) solution of the test compounds into a microtiter plate (96-well format), the nutrient broth containing the fungal mycelia/spore mixture was added.

Gaeumannomyces graminis = Gaeumannomyces graminis liquid culture growth inhibition; conditions: Gaeumannomyces graminis, read-out: Compound 1.001 inhibition (%), in PDB
Experimental: as §1, §2
Gaeumannomyces graminis/Liquid Culture:
Mycelial fragments of the fungus from cryogenic storage were directly mixed into nutrient broth (PDB potato dextrose broth). After placing a (DMSO) solution of test compound into a microtiter plate (96-well format), the nutrient broth containing the fungal spores was added.

Alternaria solani = Alternaria solani liquid culture growth inhibition; conditions: for inhibition at 0.0008 ppm: read-out: Compound 1.001 inhibition (%), 0.0008 ppm; for inhibition at 0.0016 ppm: read-out: Compound 1.001 inhibition (%), 0.0016 ppm; for inhibition at 0.0031 ppm: read-out: Compound 1.001 inhibition (%), 0.0031 ppm
Experimental: as §1
as §2, with “The nutrient broth containing the fungal spores/mycelia fragments was then added to give an end concentration of the tested compound.” left out
Alternaria solanil/Liquid Culture:
(§3) Conidia of the fungus from cryogenic storage were directly mixed into nutrient broth (PDB potato dextrose broth). After placing a (DMSO) solution of test compound into a microtiter plate (96-well format), the nutrient broth containing the fungal spores was added.

[1] = system: Mycosphaerella graminicola (Septoria tritici); assay: Mycosphaerella graminicola (Septoria tritici) liquid culture growth inhibition; conditions: for inhibition at 0.0008 ppm / inhibition at 0.0016 ppm / inhibition at 0.0031 ppm: Zymoseptoria tritici; for inhibition at 0.0008 ppm: read-out: Compound 1.001 inhibition (%), 0.0008 ppm; for inhibition at 0.0016 ppm: read-out: Compound 1.001 inhibition (%), 0.0016 ppm; for inhibition at 0.0031 ppm: read-out: Compound 1.001 inhibition (%), 0.0031 ppm
Experimental: as §1, §2
Mycosphaerella graminicola (Septoria tritici)/Liquid Culture:
as §3

[2] = system: Botryotinia fuckeliana (Botrytis cinerea); assay: Botryotinia fuckeliana (Botrytis cinerea) liquid culture growth inhibition; conditions: for inhibition at 0.0016 ppm: read-out: Compound 1.001 inhibition (%), 0.0016 ppm; for inhibition at 0.0125 ppm: read-out: Compound 1.001 inhibition (%), 0.0125 ppm
Experimental: as §1, §2
Botryotinia fuckeliana (Botrytis cinerea)/Liquid Culture:
Conidia of the fungus from cryogenic storage were directly mixed into nutrient broth (Vogels broth). After placing a (DMSO) solution of test compound into a microtiter plate (96-well format), the nutrient broth containing the fungal spores was added.

Fusarium culmorum = Fusarium culmorum liquid culture growth inhibition; conditions: for inhibition at 0.025 ppm: read-out: Compound 1.001 inhibition (%), 0.0250 ppm; for inhibition at 0.05 ppm: read-out: Compound 1.001 inhibition (%), 0.0500 ppm
Experimental: as §1, §2
Fusarium culmorum/Liquid Culture:
as §3

[3] = system: Monographella nivalis (Microdochium nivale); assay: Monographella nivalis (Microdochium nivale) liquid culture growth inhibition
Experimental: as §1, §2
Monographella nivalis (Microdochium nivale)/Liquid Culture:
as §3

[4] = Alternaria solani, PDB, Table 7
[5] = Alternaria solani, PDB, Table 9
[6] = Alternaria solani, PDB, Table 11
[7] = Alternaria solani, PDB, Table 13
[8] = Botrytis cinerea, Vogels Broth, Table 6
[9] = Botrytis cinerea, in Vogels Broth
[10] = Fusarium culmorum, PDB, Table 4

CON(C(=O)c1cn(C)nc1C(F)F)C(C)Cc1c(Cl)cc(Cl)cc1Cl (stereo not drawn) [Compound 1.001, 3-(difluoromethyl)-N-methoxy-1-methyl-N-[1-methyl-2-(2,4,6-trichlorophenyl)ethyl]pyrazole-4-carboxamide]
inhibition at 0.0016 ppm (Pythium ultimum; 0.0016 ppm, Table 10): 0% | inhibition at 0.0031 ppm (Pythium ultimum; 0.0031 ppm, Table 10): 0% | inhibition at 0.0063 ppm (Pythium ultimum; 0.0063 ppm, Table 3): 11% | inhibition at 0.0125 ppm (Pythium ultimum; 0.0125 ppm, Table 3): 0% | inhibition at 0.025 ppm (Pythium ultimum; 0.0250 ppm, Table 3): 0% | inhibition at 0.05 ppm (Pythium ultimum; 0.0500 ppm, Table 3): 0% | inhibition at 0.1 ppm (Pythium ultimum; 0.1000 ppm, Table 3): 2% | inhibition at 0.2 ppm (Pythium ultimum; 0.2000 ppm, Table 3): 0% | inhibition at 0.025 ppm (Gaeumannomyces graminis; 0.0250 ppm): 0% | inhibition at 0.05 ppm (Gaeumannomyces graminis; 0.0500 ppm): 0% | inhibition at 0.2 ppm (Gaeumannomyces graminis; 0.2000 ppm): 0% | Compound 1.001 inhibition (%) (Alternaria solani; 0.0016 ppm, in PDB): 74% | inhibition at 0.0004 ppm (Alternaria solani; Alternaria solani, read-out: Compound 1.001 inhibition (%), 0.0004 ppm, in PDB): 21% | inhibition at 0.0008 ppm (Alternaria solani; [4]): 36% | inhibition at 0.0008 ppm (Alternaria solani; [5]): 37% | inhibition at 0.0008 ppm (Alternaria solani; [6]): 42% | inhibition at 0.0008 ppm (Alternaria solani; [7]): 51% | inhibition at 0.0016 ppm (Alternaria solani; [4]): 57% | inhibition at 0.0016 ppm (Alternaria solani; [5]): 64% | inhibition at 0.0016 ppm (Alternaria solani; [6]): 68% | inhibition at 0.0016 ppm (Alternaria solani; [7]): 69% | inhibition at 0.0016 ppm (Alternaria solani; Alternaria solani, in PDB): 65% | inhibition at 0.0031 ppm (Alternaria solani; [4]): 81% | inhibition at 0.0031 ppm (Alternaria solani; [7]): 82% | Compound 1.001 inhibition (%) ([1]; 0.0016 ppm, in PDB): 33% | Compound 1.001 inhibition (%) ([1]; 0.0031 ppm, in PDB): 82% | inhibition at 0.0008 ppm ([1]; PDB, Table 8): 15% | inhibition at 0.0008 ppm ([1]; in PDB): 19% | inhibition at 0.0016 ppm ([1]; PDB, Table 8): 34% | inhibition at 0.0016 ppm ([1]; PDB, Table 12): 54% | inhibition at 0.0016 ppm ([1]; PDB, Table 14): 47% | inhibition at 0.0031 ppm ([1]; PDB, Table 8): 81% | inhibition at 0.0031 ppm ([1]; in PDB): 83% | Compound 1.001 inhibition (%) ([2]; 0.0016 ppm, in Vogels Broth): 33% and 29% | Compound 1.001 inhibition (%) ([2]; 0.0031 ppm, in Vogels Broth): 54% | Compound 1.001 inhibition (%) ([2]; 0.0063 ppm, in Vogels Broth): 62% and 38% | inhibition at 0.0004 ppm ([2]; Botrytis cinerea, read-out: Compound 1.001 inhibition (%), 0.0004 ppm, in Vogels Broth): 8% | inhibition at 0.0008 ppm ([2]; Botrytis cinerea, read-out: Compound 1.001 inhibition (%), 0.0008 ppm, in Vogels Broth): 21% | inhibition at 0.0016 ppm [2, 8]: 16% | inhibition at 0.0016 ppm [2, 9]: 26% | inhibition at 0.0031 ppm ([2]; Botrytis cinerea, read-out: Compound 1.001 inhibition (%), 0.0031 ppm, Vogels Broth, Table 6): 49% | inhibition at 0.0031 ppm ([2]; Botrytis cinerea, read-out: Compound 1.001 inhibition (%), 0.0031 ppm, in Vogels Broth): 44% | inhibition at 0.0063 ppm ([2]; Botrytis cinerea, read-out: Compound 1.001 inhibition (%), 0.0063 ppm, Vogels Broth, Table 6): 61% | inhibition at 0.0125 ppm [2, 8]: 79% | inhibition at 0.0125 ppm [2, 9]: 79% | inhibition at 0.0031 ppm ([2]; Botrytis cinerea, read-out: Compound 1.001 inhibition (%), compound 1.001 alone at 0.0031 ppm, in Vogels Broth): 40% | inhibition at 0.0063 ppm ([2]; Botrytis cinerea, read-out: Compound 1.001 inhibition (%), compound 1.001 alone at 0.0063 ppm, in Vogels Broth): 60% | Compound 1.001 inhibition (%) (Fusarium culmorum; 0.0250 ppm, in PDB): 27% and 34% and 29% | Compound 1.001 inhibition (%) (Fusarium culmorum; 0.0500 ppm, in PDB): 54% and 53% | Compound 1.001 inhibition (%) (Fusarium culmorum; 0.1000 ppm, in PDB): 57% | Compound 1.001 inhibition (%) (Fusarium culmorum; 0.2000 ppm, in PDB): 59% and 57% | inhibition at 0.0016 ppm (Fusarium culmorum; Fusarium culmorum, read-out: Compound 1.001 inhibition (%), 0.0016 ppm, PDB, Table 4): 7% | inhibition at 0.0031 ppm (Fusarium culmorum; Fusarium culmorum, read-out: Compound 1.001 inhibition (%), 0.0031 ppm, PDB, Table 4): 19% | inhibition at 0.0063 ppm (Fusarium culmorum; Fusarium culmorum, read-out: Compound 1.001 inhibition (%), 0.0063 ppm, PDB, Table 4): 14% | inhibition at 0.0125 ppm (Fusarium culmorum; Fusarium culmorum, read-out: Compound 1.001 inhibition (%), 0.0125 ppm, PDB, Table 4): 20% | inhibition at 0.025 ppm (Fusarium culmorum; [10]): 38% | inhibition at 0.025 ppm (Fusarium culmorum; Fusarium culmorum, in PDB): 24% | inhibition at 0.05 ppm (Fusarium culmorum; [10]): 46% | inhibition at 0.05 ppm (Fusarium culmorum; Fusarium culmorum, in PDB): 49% | inhibition at 0.1 ppm (Fusarium culmorum; Fusarium culmorum, read-out: Compound 1.001 inhibition (%), 0.1000 ppm, in PDB): 51% | inhibition at 0.2 ppm (Fusarium culmorum; Fusarium culmorum, read-out: Compound 1.001 inhibition (%), 0.2000 ppm, in PDB): 55% | Compound 1.001 inhibition (%) ([3]; 0.0008 ppm, in PDB): 3% | Compound 1.001 inhibition (%) ([3]; 0.0250 ppm, in PDB): 5% | Compound 1.001 inhibition (%) ([3]; 0.0500 ppm, in PDB): 48% | inhibition at 0.0004 ppm ([3]; Monographella nivalis, read-out: Compound 1.001 inhibition (%), 0.0004 ppm, PDB, Table 5): 0% | inhibition at 0.0008 ppm ([3]; Monographella nivalis, read-out: Compound 1.001 inhibition (%), 0.0008 ppm, PDB, Table 5): 0% | inhibition at 0.0008 ppm ([3]; Monographella nivalis, read-out: Compound 1.001 inhibition (%), 0.0008 ppm, in PDB): 2% | inhibition at 0.0016 ppm ([3]; Monographella nivalis, read-out: Compound 1.001 inhibition (%), 0.0016 ppm, PDB, Table 5): 0% | inhibition at 0.0016 ppm ([3]; Monographella nivalis, read-out: Compound 1.001 inhibition (%), 0.0016 ppm, in PDB): 0% | inhibition at 0.0031 ppm ([3]; Monographella nivalis, read-out: Compound 1.001 inhibition (%), 0.0031 ppm, PDB, Table 5): 0% | inhibition at 0.0125 ppm ([3]; Monographella nivalis, read-out: Compound 1.001 inhibition (%), 0.0125 ppm, in PDB): 0% | inhibition at 0.05 ppm ([3]; Monographella nivalis, read-out: Compound 1.001 inhibition (%), 0.0500 ppm, in PDB): 51% | inhibition at 0.0004 ppm ([3]; Monographella nivalis, read-out: Compound 1.001 inhibition (%), compound 1.001 alone at 0.0004 ppm, in PDB): 4% | inhibition at 0.0008 ppm ([3]; Monographella nivalis, read-out: Compound 1.001 inhibition (%), compound 1.001 alone at 0.0008 ppm, in PDB): 1% | inhibition at 0.0016 ppm ([3]; Monographella nivalis, read-out: Compound 1.001 inhibition (%), compound 1.001 alone at 0.0016 ppm, in PDB): 0% | inhibition at 0.0063 ppm ([3]; Monographella nivalis, read-out: Compound 1.001 inhibition (%), compound 1.001 alone at 0.0063 ppm, in PDB (Table 38)): 0% | inhibition at 0.0125 ppm ([3]; Monographella nivalis, read-out: Compound 1.001 inhibition (%), compound 1.001 alone at 0.0125 ppm, in PDB): 0% | inhibition at 0.0125 ppm ([3]; Monographella nivalis, read-out: Compound 1.001 inhibition (%), compound 1.001 alone at 0.0125 ppm, in PDB (Table 38)): 0%
